Laboratory results taken from US20130005811A1, “ANTIMICROBIAL TREATMENT FOR SEEDS AND SPROUTS” (priority 2010, published 2013).
Marks after values point to notes of the source that are not given here.

System: E. coli O157:H7
Assay: Inactivation of E. coli O157:H7 on alfalfa seeds inoculated with 10^8 CFU/g
Assay type: cell-based, Escherichia coli O157:H7
Experimental: Five isolates of Escherichia coli O157:H7, including strain 932 (human isolate), E009 (beef isolate), E0018 (cattle isolate), E0122 (cattle isolate), E0139 (deer jerky isolate); and five isolates of Salmonella typhimurium DT104, including strain H2662 (cattle isolate), 11942A (cattle isolate), 13068A (cattle isolate), 152N17-1 (dairy isolate) and H3279 (human isolate) were used. Nalidixic acid-resistant (50 μg/ml) E. coli O157:H7 were used to facilitate enumeration. Each E. coli O157:H7 and Salmonella strain was grown in tryptic soy broth (TSB, Beckon Dickinson, Sparks, Md.) at 37° C. for 18 hr. Approximately equal cell numbers of each of the five strains were combined and used as a 5-strain mixture with cell numbers being adjusted by spectrophotometric (Spectronic Instruments, Rochester, N.Y.) determination as described in Zhao et al., (2009) J. Food Prot. 72: 928-936, incorporated herein by reference in its entirety. Bacterial cell numbers were confirmed by plating 0.1 ml of serial dilutions (1:10) in 0.1% peptone on tryptic soy agar (TSA, Beckon Dickinson) and Sorbitol MacConkey agar (SMA, Oxoid, Hampshire, UK) for E. coli O157:H7, and TSA and XLD agar (Beckon Dickinson) for Salmonella and incubating all plates at 37° C. for 24 hr, after which colonies were counted.
Levulinic acid (0.5%) and 0.05% sodium dodecyl sulfate (SDS) obtained from Sigma-Aldrich (St. Louis, Mo.) were tested in combination at 21±2° C. for their antimicrobial activity to E. coli O157:H7 and S. typhimurium on alfalfa seeds as a wash treatment. Calcium hypochlorite (Arch Chemicals, Smyrna, Ga.) at 20,000 μg/ml (ppm) was used as the positive control, and deionized water was used as the negative control.
Before each trial, 25 ml of sterile tap water and 25 g of alfalfa seeds were added to a WHIRL-PAK® bag (Nasco, Fort Atkinson, Wis.) and pummeled in a stomacher blender at 150 rpm for 1 min. Duplicate 0.1 ml portions of the contents were plated on SMA, XLD, and TSA plates to detect E. coli O157:H7 and Salmonella, and enumerate aerobic bacteria counts according to the protocols described below. Only E. coli O157:H7-negative and Salmonella-negative alfalfa seeds were used. Dry seeds (50 g) were individually placed in a sterilized glass beaker (1 L) and 5 ml of a mixture of E. coli O157:H7 or S. typhimurium DT 104 (high inocula at 10^8-10^9 CFU/ml and low inocula at 10^3-10^4 CFU/ml) was inoculated on the surface of the seeds in each glass beaker under a laminar flow hood. A sterile plastic spoon was used to mix for 2 min the seeds with bacterial suspension. The glass beakers were held in a laminar flow hood for 1 hr, 4 hr, 24 hr, 48 hr, and 72 hr with intermittent mixing by plastic spoon before use for chemical treatment.
Inactivation of E. coli O157:H7 and Salmonella on Alfalfa Seeds: Inoculated, dried alfalfa seeds (50 g samples) were placed in a 1000 ml glass beaker containing 200 ml of treatment solution and agitated by a magnetic stir bar at 150 ppm at 21° C. for 0, 1, 2, 5, 10, 20, 30, and 60 min. Following treatment, 25 g of seeds was placed in a stomacher bag containing 25 ml 0.1M phosphate buffer, pH 7.2 (PBS) for levulinic acid plus SDS-treated seeds or neutralizing buffer (50×) for calcium hypochlorite-treated seeds and pummeled for 1 min. at 150 rpm in a stomacher blender (Seward, Ltd., Worthing, England). The suspension was serially (1:10) diluted in 0.1% peptone water and 0.1 ml of each dilution was surface-plated in duplicate onto TSA and Sorbitol MacConkey agar containing 50 μg nalidixic acid/ml (TSA-NA and SMA-NA) for E. coli O157:H7, and on TSA and XLD containing ampicillin (32 μg/ml), tetracycline (16 μg/ml) and streptomycin (64 μg/ml) (TSA+ and XLD+) for S. typhimurium DT 104. All plates were incubated at 37° C. for 48 hr.

[Ca+2].[O-]Cl.[O-]Cl [20,000 ppm, Ca(OCl)2, pH 11.4, Calcium hypochlorite]
E. coli O157:H7 counts on seeds (dried for 4 hr, treated for 0 min (actual time 0 delayed by 20 to 30 seconds)): +^b (below the minimum detection level by direct plating (<0.7 log CFU/ml), but positive by enrichment culture)
E. coli O157:H7 counts on seeds (dried for 4 hr, treated for 1 min): + (below the minimum detection level by direct plating (<0.7 log CFU/ml), but positive by enrichment culture)
E. coli O157:H7 counts on seeds (dried for 4 hr, treated for 2 min): −^c
E. coli O157:H7 counts on seeds (dried for 4 hr, treated for 5 min): + (below the minimum detection level by direct plating (<0.7 log CFU/ml), but positive by enrichment culture)
E. coli O157:H7 counts on seeds (dried for 4 hr, treated for 10 min): 1.7 CFU/g
E. coli O157:H7 counts on seeds (dried for 4 hr, treated for 20 min): 2.0 CFU/g
E. coli O157:H7 counts on seeds (dried for 4 hr, treated for 30 min): 1.7 CFU/g
E. coli O157:H7 counts on seeds (dried for 4 hr, treated for 60 min): + (below the minimum detection level by direct plating (<0.7 log CFU/ml), but positive by enrichment culture)
E. coli O157:H7 counts on seeds (dried for 24 hr, treated for 0 min): + (below the minimum detection level by direct plating (<0.7 log CFU/ml), but positive by enrichment culture)
E. coli O157:H7 counts on seeds (dried for 24 hr, treated for 1 min): −
E. coli O157:H7 counts on seeds (dried for 24 hr, treated for 2 min): −
E. coli O157:H7 counts on seeds (dried for 24 hr, treated for 5 min): −
E. coli O157:H7 counts on seeds (dried for 24 hr, treated for 10 min): + (below the minimum detection level by direct plating (<0.7 log CFU/ml), but positive by enrichment culture)
E. coli O157:H7 counts on seeds (dried for 24 hr, treated for 20 min): −
E. coli O157:H7 counts on seeds (dried for 24 hr, treated for 30 min): −
E. coli O157:H7 counts on seeds (dried for 24 hr, treated for 60 min): + (below the minimum detection level by direct plating (<0.7 log CFU/ml), but positive by enrichment culture)
E. coli O157:H7 counts on seeds (dried for 48 hr, treated for 0 min): + (below the minimum detection level by direct plating (<0.7 log CFU/ml), but positive by enrichment culture)
E. coli O157:H7 counts on seeds (dried for 48 hr, treated for 1 min): −
E. coli O157:H7 counts on seeds (dried for 48 hr, treated for 2 min): + (below the minimum detection level by direct plating (<0.7 log CFU/ml), but positive by enrichment culture)
E. coli O157:H7 counts on seeds (dried for 48 hr, treated for 5 min): −
E. coli O157:H7 counts on seeds (dried for 48 hr, treated for 10 min): −
E. coli O157:H7 counts on seeds (dried for 48 hr, treated for 20 min): −
E. coli O157:H7 counts on seeds (dried for 48 hr, treated for 30 min): −
E. coli O157:H7 counts on seeds (dried for 48 hr, treated for 60 min): −
E. coli O157:H7 counts on seeds (dried for 72 hr, treated for 0 min): + (below the minimum detection level by direct plating (<0.7 log CFU/ml), but positive by enrichment culture)
E. coli O157:H7 counts on seeds (dried for 72 hr, treated for 1 min): + (below the minimum detection level by direct plating (<0.7 log CFU/ml), but positive by enrichment culture)
E. coli O157:H7 counts on seeds (dried for 72 hr, treated for 2 min): + (below the minimum detection level by direct plating (<0.7 log CFU/ml), but positive by enrichment culture)
E. coli O157:H7 counts on seeds (dried for 72 hr, treated for 5 min): −
E. coli O157:H7 counts on seeds (dried for 72 hr, treated for 10 min): + (below the minimum detection level by direct plating (<0.7 log CFU/ml), but positive by enrichment culture)
E. coli O157:H7 counts on seeds (dried for 72 hr, treated for 20 min): + (below the minimum detection level by direct plating (<0.7 log CFU/ml), but positive by enrichment culture)
E. coli O157:H7 counts on seeds (dried for 72 hr, treated for 30 min): −
E. coli O157:H7 counts on seeds (dried for 72 hr, treated for 60 min): −
Reduction of E. coli O157:H7 population (seeds dried for 4 hr, treated for up to 60 min): greater than 6 log CFU/g
E. coli O157:H7 detection after treatment (seeds dried for 24 hr, treated for 5 min): only detectable on seeds by selective enrichment culture
